Consider 2 compounds from patent US6962909B2, “Treatment of neovascularization disorders with squalimine” (Genaera Corporation, priority 1995, dated 2005).

In data set [1] the test system is L1210 lymphoblastic leukemia cells. Briefly: Mouse model of L1210 leukemia.
Protocol: C57B mice were inoculated with L1210 lymphoblastic leukemia cells at an inoculum that causes leukemia in 100% of animals. Mice received compound 1436 at 1, 5, 10 mg/kg every 3 days intraperitoneally.
Of particular interest is the hematological profile determined during the course of treatment. Animals were treated with cisplatin and compound 1436.
A further data set concerns VX2 carcinoma. In words: Tumor-induced corneal neovascularization in rabbits. The data set is classed as in vivo, rabbit. The conditions noted are these: pellet of ELVAX 40 P. The text has this: The implantation of VX2 carcinoma into the rabbit cornea results in the induction of new blood vessels within several days (Tamargo et al., Cancer Research 51, 1991, 672-675). It is believed that this carcinoma secretes growth factors that stimulate new blood-vessel growth. Thus, this model is indicative in vivo evidence of therapeutic utility in the treatment of pathological disorders of vascularization, including the metastatic spread of tumors, diabetic retinopathy, macular degeneration, and rheumatoid arthritis.
This experiment followed the published protocol—tumor was implanted adjacent to a polymer containing a concentration of the agent to be evaluated. The polymer releases the agent slowly in the immediate neighborhood of the tumor, providing sustained high local concentrations of the agent. In this experiment, squalamine introduced into a pellet of ELVAX 40 P (DuPont, Wilmington, Del.) inhibited new blood vessel formation by about 60% at days 7 and 14, and by about 25% at day 21.

Where [2] appears, read: mice with 5 × 10^5 L1210 cells ip, cisplatin 8 mg/kg ip, compound 1436 10 mg/kg ip q4d.

As for `CC(CC[C@@H](OS(=O)(=O)O)C(C)C)[C@H]1CCC2C3C(CC[C@@]21C)[C@@]1(C)CC[C@H](NCCCNCCCCNCCCN)C[C@@H]1C[C@H]3O` (stereo partly shown) [Compound 1436], the “Survival of leukemic mice” value in data set [1] (highest dose (10 mg/kg every 3 days intraperitoneally)) is “significant prolongation of life”. In data set [1] (setting [2]), the “RBC, Early Time” value was 4.8 10^6/mm^3; the “RBC, Late Time” value is 8.8 10^6/mm^3; the “WBC, Early Time” value is given as 3.3 10^3/mm^3; the “WBC, Late Time” value is 3.7 10^3/mm^3.

Regarding `CC(CC[C@@H](OS(=O)(=O)O)C(C)C)[C@H]1CCC2C3C(CC[C@@]21C)[C@@]1(C)CC[C@H](NCCCNCCCCN)C[C@@H]1C[C@H]3O` (stereo partly shown) [squalamine], the “Inhibition of new blood vessel formation” value in the data set on VX2 carcinoma (day 21) was “about 25%”; in the data set on VX2 carcinoma (days 7 and 14), “about 60%”.
